In PubChem BioAssay AID2060900 (Molecular Pharmacology Branch, DTP, NCI, 2025):

Test system: 521955-158-R2-J5-PDC complex spheroids, viability
Test: Anticancer human tumor 521955-158-R2-J5-PDC patient-derived pancreatic carcinoma cell line growth inhibition [RAS]
Details: for IC50: curve of first compound; for viability, T/C: stronger effect = lower value
Excerpt: RAS pathway inhibitors in Combinations in Complex Spheroids
A high-throughput screen of multi-cell type tumor spheroids was designed to identify active combinations of RAS pathway inhibitors and targeted small molecules. Complex spheroids include a stromal component modeled by human endothelial cells (HUVEC) and fibroblasts modeled by human mesenchymal stem cells (MSCs). The concentration ranges selected for each drug and investigational agent were based upon clinically achievable concentrations if the clinical Cmax of the agent was known.
Compounds. The drugs and investigational agents: abemaciclib (NSC768073), cobimetinib (NSC768068), divarasib (GDC6063, NSC841802), docetaxel (NSC628503), GDC-1971 (RLY-1971, NSC841576), gemcitabine (NSC613327), inavolisib (NSC800729), ipatasertib (NSC767898), KB-0742 (NSC834161), MRTX-1133 (NSC836407), osimertinib (NSC779217), RMC-4630 (NSC839698), RMC-6236 (NSC851965), RMC-6291 (NSC852671), Ro-3306 (NSC812927), sapanisertib (NSC764658), SN-38 (NSC673596), staurosporine (NSC755774), SY5609 (NSC837396), and tovorafenib (DAY101, NSC766906), were obtained from the National Cancer Institute (NCI) Developmental Therapeutics Program Chemical Repository. The FDA-approved anticancer drug set is available from the NCI Developmental Therapeutics Program. […] The stock solutions were prepared in dimethyl sulfoxide (DMSO, Sigma-Aldrich, St. Louis, MO, cat. D2650) at 800-fold the tested concentration and stored at -70 degrees C prior to their use. All drugs and investigational agents were tested over a range starting from a high concentration at or near the clinical Cmax and decreasing in half-log increments. If the clinical Cmax for an agent had not been determined, the highest concentration tested was 10 microM.
Cell Culture. All cells were maintained in an incubator at 37 degrees C and 5% CO2 with 95% humidity. The PDC lines were cultured according to standard operating procedures established by the NCI PDMR. All PDCs were thawed and cultured in Matrigel-coated flasks prepared with a working solution of 1X Ham's F-12 nutrient mix, without supplementation (Invitrogen, Waltham, MA, cat. 11765054), 100 U/mL penicillin-streptomycin (Invitrogen, cat. 15140122), and 2.5% Matrigel (Corning Inc., Corning, NY, cat. 354248) for the first three passages. The 362531-283-R-J2-PDC and 782815-120-R-J1-PDC lines were cultured in 6C/Colon 1B media, which includes advanced DMEM/F-12 (Thermo Fisher Scientific, cat. 12634028), 10 mM HEPES (Thermo Fisher Scientific, cat. 15630080), 1X GlutaMAX supplement (Thermo Fisher Scientific, cat. 35050061), 0.1 mg/mL primocin (InvivoGen, San Diego, CA, cat. ant-pm-2), 10% defined fetal bovine serum, heat inactivated (HyClone Laboratories Inc., Logan, UT, cat. SH30070.03HI), 50% L-WRN conditioned media (ATCC, cat. CRL-3276), 1.25 mM N-Acetyl-L-cysteine (Sigma-Aldrich, cat. A9165), 10 mM nicotinamide (Sigma-Aldrich, cat. N0636), 1X B-27 supplement (Thermo Fisher Scientific, cat. 17504044), 1X N-2 supplement (Thermo Fisher Scientific, cat. 17502048), 50 ng/mL human EGF (Thermo Fisher Scientific, cat. PHG0311), and 10 microM Y-27632 dihydrochloride (Tocris Bioscience, cat. 1254). The K12877-001-R-J1-PDC line was cultured in 6I media, which includes all 6C/Colon 1B media plus 10 ng/mL human FGF-10 (PeproTech, cat. 100-26), 1 ng/mL human FGF-2 (PeproTech, cat. 100-18B), 1 µM prostaglandin E2 (Tocris Bioscience, cat. 2296), […] hydrocortisone (Sigma-Aldrich, cat. H4001), and […] bovine insulin (Sigma-Aldrich, cat. I6634). The K86415-001-R-J1-PDC line was cultured in 6D media, which includes all 6C/Colon 1B media components minus the L-WRN conditioned media. The 485176-168-R4-J1-PDC was cultured in PANC media, which includes all 6C/Colon 1B media plus 100 ng/mL human FGF-10 (PeproTech, cat. 100-26), 500 nM SB-431542 (Selleckchem, cat. S1067), and 10 nM gastrin (Tocris Bioscience, cat. 3006). […]

[1] = second compound 0.000949 µM, first compound 0.0316 µM
[2] = second compound 0.000949 µM, first compound 0.1 µM
[3] = second compound 0.000949 µM, first compound 0.316 µM
[4] = second compound 0.000949 µM, first compound 1 µM
[5] = second compound 0.000949 µM, first compound 3.16 µM
[6] = second compound 0.000949 µM, first compound 10 µM
[7] = second compound 0.003 µM, first compound 0.0316 µM
[8] = second compound 0.003 µM, first compound 0.1 µM
[9] = second compound 0.003 µM, first compound 0.316 µM
[10] = second compound 0.003 µM, first compound 1 µM
[11] = second compound 0.003 µM, first compound 3.16 µM
[12] = second compound 0.003 µM, first compound 10 µM
[13] = second compound 0.00949 µM, first compound 0.0316 µM
[14] = second compound 0.00949 µM, first compound 0.1 µM
[15] = second compound 0.00949 µM, first compound 0.316 µM
[16] = second compound 0.00949 µM, first compound 1 µM
[17] = second compound 0.00949 µM, first compound 3.16 µM
[18] = second compound 0.00949 µM, first compound 10 µM
[19] = second compound 0.03 µM, first compound 0.0316 µM
[20] = second compound 0.03 µM, first compound 0.1 µM
[21] = second compound 0.03 µM, first compound 0.316 µM
[22] = second compound 0.03 µM, first compound 1 µM
[23] = second compound 0.03 µM, first compound 3.16 µM
[24] = second compound 0.03 µM, first compound 10 µM
[25] = second compound 0.0949 µM, first compound 0.0316 µM
[26] = second compound 0.0949 µM, first compound 0.1 µM
[27] = second compound 0.0949 µM, first compound 0.316 µM
[28] = second compound 0.0949 µM, first compound 1 µM
[29] = second compound 0.0949 µM, first compound 3.16 µM
[30] = second compound 0.0949 µM, first compound 10 µM
[31] = second compound 0.3 µM, first compound 0.0316 µM
[32] = second compound 0.3 µM, first compound 0.1 µM
[33] = second compound 0.3 µM, first compound 0.316 µM
[34] = second compound 0.3 µM, first compound 1 µM
[35] = second compound 0.3 µM, first compound 3.16 µM
[36] = second compound 0.3 µM, first compound 10 µM
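Further: compound exposure lasted seven days before the viability read.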
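Wherever viability, T/C is given: spheroids also contain HUVEC endothelial cells and mesenchymal stem cells as stroma.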

NC1c2ccccc2OC12CCN(c1cnc3c(N4CCCc5ncccc54)n[nH]c3n1)CC2 (centres undefined) + CCn1c(-c2cc(N3CCN(C)CC3)cnc2C(C)OC)c2c3cc(ccc31)-c1csc(n1)CC(NC(=O)C1CC1C)C(=O)N1CCCC(N1)C(=O)OCC(C)(C)C2
IC50 (second compound 0.000949 µM): < 31.6 nM | IC50 (second compound 0.003 µM): < 31.6 nM | IC50 (second compound 0.00949 µM): < 31.6 nM | IC50 (second compound 0.03 µM): < 31.6 nM | IC50 (second compound 0.0949 µM): < 31.6 nM | IC50 (second compound 0.3 µM): < 31.6 nM | viability, T/C [1]: 36.8% | viability, T/C [2]: 33.9% | viability, T/C [3]: 36.1% | viability, T/C [4]: 20.8% | viability, T/C [5]: 18.5% | viability, T/C [6]: 13.4% | viability, T/C [7]: 35.4% | viability, T/C [8]: 28.6% | viability, T/C [9]: 21.4% | viability, T/C [10]: 19.2% | viability, T/C [11]: 13.3% | viability, T/C [12]: 5.75% | viability, T/C [13]: 24.2% | viability, T/C [14]: 16% | viability, T/C [15]: 14.4% | viability, T/C [16]: 11.2% | viability, T/C [17]: 6.08% | viability, T/C [18]: 3.95% | viability, T/C [19]: 10.4% | viability, T/C [20]: 8.87% | viability, T/C [21]: 10.9% | viability, T/C [22]: 8.91% | viability, T/C [23]: 7.26% | viability, T/C [24]: 4.07% | viability, T/C [25]: 11% | viability, T/C [26]: 9.54% | viability, T/C [27]: 11.1% | viability, T/C [28]: 5.55% | viability, T/C [29]: 8% | viability, T/C [30]: 3.91% | viability, T/C [31]: 10.1% | viability, T/C [32]: 7.36% | viability, T/C [33]: 9.18% | viability, T/C [34]: 8.17% | viability, T/C [35]: 9.16% | viability, T/C [36]: 3.2%

CC1(O)CCCC1n1c(=O)c(C(F)F)cc2cnc(NC3CCN(S(C)(=O)=O)CC3)nc21 (centres undefined) + CCn1c(-c2cc(N3CCN(C)CC3)cnc2C(C)OC)c2c3cc(ccc31)-c1csc(n1)CC(NC(=O)C1CC1C)C(=O)N1CCCC(N1)C(=O)OCC(C)(C)C2
IC50 (second compound 0.000949 µM): 31.6 nM | IC50 (second compound 0.003 µM): < 31.6 nM | IC50 (second compound 0.00949 µM): < 31.6 nM | IC50 (second compound 0.03 µM): < 31.6 nM | IC50 (second compound 0.0949 µM): < 31.6 nM | IC50 (second compound 0.3 µM): < 31.6 nM | viability, T/C [1]: 33% | viability, T/C [2]: 39% | viability, T/C [3]: 36.6% | viability, T/C [4]: 42.8% | viability, T/C [5]: 63.2% | viability, T/C [6]: 9% | viability, T/C [7]: 35.6% | viability, T/C [8]: 34.5% | viability, T/C [9]: 37.5% | viability, T/C [10]: 43.1% | viability, T/C [11]: 50.5% | viability, T/C [12]: 10.9% | viability, T/C [13]: 29.2% | viability, T/C [14]: 29.9% | viability, T/C [15]: 33.2% | viability, T/C [16]: 32.6% | viability, T/C [17]: 49.6% | viability, T/C [18]: 9.41% | viability, T/C [19]: 18.9% | viability, T/C [20]: 20.1% | viability, T/C [21]: 20.8% | viability, T/C [22]: 24.8% | viability, T/C [23]: 28.9% | viability, T/C [24]: 6.82% | viability, T/C [25]: 10.6% | viability, T/C [26]: 13.1% | viability, T/C [27]: 13.9% | viability, T/C [28]: 16.2% | viability, T/C [29]: 21.5% | viability, T/C [30]: 7% | viability, T/C [31]: 10.8% | viability, T/C [32]: 11.3% | viability, T/C [33]: 11.2% | viability, T/C [34]: 13.9% | viability, T/C [35]: 19.1% | viability, T/C [36]: 6.07%
